Source: patent US20120322685A1, “DEVICE FOR COLLECTING AND ANALYZING MIGRATORY TUMOR CELLS” (priority 2010, published 2012)

Assays:
[1] = tested on: MDA-MB-231 derived mammary tumors; test: in vivo invasion assay, MDA-MB-231 derived mammary tumors; set-up: species or system human tumor xenograft in SCID mice tumor xenograft in SCID mice; details: MDA-MB-231 tumors in mammary fat pads of SCID mice; FIG. 1C
From the text: Therefore, an in vivo invasion assay was created in which three needles (microneedles ˜100 um in diameter) containing matrigel and various growth factors are placed independently with microscopic precision, using a specially designed micromanipulator guided device, into the primary tumor for chemotaxis-based cell collection in vivo [3]. One needle contains control conditions (usually no ligand or an inhibitor), and the other two are identical. […] Fetal serum was also sufficient but this required signaling by the EGF receptor again implicating the EGF receptor. Furthermore, CSF-1 was also sufficient for cell collection. […]
Mammary tumors derived by injecting the human cell line MDA-MB-231 into a mammary fat pad of mice were used in the in vivo invasion assay. […] The involvement of EGF and CSF1 in carcinoma cell invasion has been analyzed from primary breast tumors derived from the injection of MDA-MB-231 cells into the mammary fat pads of SCID mice. […]

[2] = tested on: Human lung tumors heterotransplanted into nude mice; test: in vivo invasion assay, chemotaxis-based cell collection into needles, human lung tumor heterotransplants; details: needles containing 50 nM Heregulin; first mouse to mouse transplant
From the text: Therefore, an in vivo invasion assay was created in which three needles (microneedles ˜100 um in diameter) containing matrigel and various growth factors are placed independently with microscopic precision, using a specially designed micromanipulator guided device, into the primary tumor for chemotaxis-based cell collection in vivo [3]. One needle contains control conditions (usually no ligand or an inhibitor), and the other two are identical. […] Fetal serum was also sufficient but this required signaling by the EGF receptor again implicating the EGF receptor. Furthermore, CSF-1 was also sufficient for cell collection. […] Migration and collection was directly correlated with macrophage density in the mammary gland, stage of progression to malignancy (only background levels of cells, <200 cells, were collected from normal mammary glands and adenoma stage tumors compared with carcinoma stage tumors, ˜1000 cells) and the presence of CSF1 in the tumor was required for cell collection as shown using mouse models with either decreased (op/op) or increased (tet on CSF-1) CSF-1 expression that regulates macrophage recruitment to the mammary gland and metastasis. […] Furthermore, the motility of tumor cells and intravasation occurs preferentially in association with macrophages. […]

| Molecule | CSF1-mediated collection of invasive cells (tumor cell and macrophage invasion) [1] | EGF-mediated collection of invasive cells (tumor cell and macrophage invasion) [1] | fold more cells collected in needles as compared to needles with buffer alone [2] |
| --- | --- | --- | --- |
| COc1cc2ncnc(Nc3ccc(F)c(Cl)c3)c2cc1OCCCN1CCOCC1 [Iressa] | inhibited | inhibited |  |
| Heregulin [reference compound] |  |  | 2 fold |
